Results on 23 compounds are retold here after patent US20250197372A1 (priority 2020, published 2025).

pIC50: −log10 of the molar value.

The target of this assay is T1, recombinant alpha-glucosidase I (human full-length glucosidase I, Glu 1) (Homo sapiens, UniProt Q13724).
T1 construct: 6-His (C); made in house; host or cells: HEK-293T cells transduced with BacMam virus (virus raised in Sf9)
T1 sequence (Q13724 1-837): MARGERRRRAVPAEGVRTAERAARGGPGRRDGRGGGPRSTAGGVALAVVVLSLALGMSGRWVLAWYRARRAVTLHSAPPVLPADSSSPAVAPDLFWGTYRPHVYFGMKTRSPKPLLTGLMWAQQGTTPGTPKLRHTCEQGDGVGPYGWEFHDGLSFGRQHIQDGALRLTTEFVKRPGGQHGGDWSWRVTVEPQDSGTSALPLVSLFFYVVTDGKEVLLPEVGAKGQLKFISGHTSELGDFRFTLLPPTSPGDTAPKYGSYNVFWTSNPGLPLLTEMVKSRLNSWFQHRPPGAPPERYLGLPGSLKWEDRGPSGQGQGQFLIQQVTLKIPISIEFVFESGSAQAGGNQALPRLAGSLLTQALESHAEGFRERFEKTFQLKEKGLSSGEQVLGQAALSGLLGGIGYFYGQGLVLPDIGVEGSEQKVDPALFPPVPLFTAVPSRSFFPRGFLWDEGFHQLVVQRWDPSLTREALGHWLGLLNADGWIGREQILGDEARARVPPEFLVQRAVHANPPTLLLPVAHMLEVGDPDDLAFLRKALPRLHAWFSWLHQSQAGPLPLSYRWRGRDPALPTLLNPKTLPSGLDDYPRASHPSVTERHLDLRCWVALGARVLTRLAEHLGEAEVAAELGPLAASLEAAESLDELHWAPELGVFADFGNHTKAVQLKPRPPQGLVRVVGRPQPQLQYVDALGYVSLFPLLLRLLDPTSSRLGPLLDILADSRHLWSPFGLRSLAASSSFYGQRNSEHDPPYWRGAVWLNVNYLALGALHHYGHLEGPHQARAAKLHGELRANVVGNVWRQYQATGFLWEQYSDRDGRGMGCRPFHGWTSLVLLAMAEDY
Nature of the assay: Alpha-glucosidase I assay (Amplex Red glucose detection, synthetic trisaccharide substrate). The format is biochemical. Particulars: Glucosidase 1; read-out: Glu 1 IC50. In outline: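 Human full-length glucosidase I, His-tagged, […] and Ni-purified. Enzyme preincubated with compound dilutions 60 min at 37° C, then synthetic trisaccharide substrate 90 min at 37° C; stopped with 1.5M Tris pH 8.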

By pIC50 is commonly meant the IC50 on a negative log10 scale, so that one unit is a factor of ten. For `O=[N+]([O-])c1cc(N2CCOCC2)ccc1NCc1ccc(CN2C[C@@H](O)[C@H](O)[C@@H](O)[C@@H]2CO)cc1` (stereo in doubt) [Compound 1069, (2S,3S,4S,5R)-2-(hydroxymethyl)-1-{[4-({[4-(morpholin-4-yl)-2-nitrophenyl]amino}methyl)phenyl]methyl}piperidine-3,4,5-triol], the pIC50 was 7.66. Regarding `CN(Cc1ccc(CN2C[C@H](O)[C@@H](O)[C@H](O)[C@H]2CO)cc1)c1cc(-c2cccnn2)cc(C2CC2)c1` [Compound 1001, (2R,3R,4R,5S)-1-{[4-({[3-cyclopropyl-5-(pyridazin-3-yl)phenyl](methyl)amino}methyl)phenyl]methyl}-2-(hydroxymethyl)piperidine-3,4,5-triol], the pIC50 is 7.89.

For `Cc1cc(CN2CCOCC2)cc(NCCCCCCN2C[C@H](O)[C@@H](O)[C@H](O)[C@H]2CO)c1` [Compound 1003, (2R,3R,4R,5S)-2-(hydroxymethyl)-1-[6-({3-methyl-5-[(morpholin-4-yl)methyl]phenyl}amino)hexyl]piperidine-3,4,5-triol], the pIC50 is 6.44. For `Cc1cc(CN2CCOCC2)cc(NCc2ccc(CN3C[C@H](O)[C@@H](O)[C@H](O)[C@H]3CO)cc2)c1` [Compound 1005, (2R,3R,4R,5S)-2-(hydroxymethyl)-1-({4-[({3-methyl-5-[(morpholin-4-yl)methyl]phenyl}amino)methyl]phenyl}methyl)piperidine-3,4,5-triol], the pIC50 was 6.39. Turning to `OC[C@@H]1[C@@H](O)[C@H](O)[C@@H](O)CN1CCCCCCNc1cc(C2CC2)cc(N2CCOCC2)c1` [Compound 1006, (2R,3R,4R,5S)-1-(6-{[3-cyclopropyl-5-(morpholin-4-yl)phenyl]amino}hexyl)-2-(hydroxymethyl)piperidine-3,4,5-triol], the pIC50 was 6.66. Regarding `N#Cc1cc(NCc2cccc(CN3C[C@H](O)[C@@H](O)[C@H](O)[C@H]3CO)c2)cc(-c2ccc[nH]2)c1` [Compound 1045, 3-(1H-pyrrol-2-yl)-5-{[(3-{[(2R,3R,4R,5S)-3,4,5-trihydroxy-2-(hydroxymethyl)piperidin-1-yl]methyl}phenyl)methyl]amino}benzonitrile], the pIC50 is over 9.00. As to `N#Cc1cc(NCc2cccc(CN3C[C@H](O)[C@@H](O)[C@H](O)[C@H]3CO)c2)cc(-c2cccnn2)c1` [Compound 1046, 3-(pyridazin-3-yl)-5-{[(3-{[(2R,3R,4R,5S)-3,4,5-trihydroxy-2-(hydroxymethyl)piperidin-1-yl]methyl}phenyl)methyl]amino}benzonitrile], the pIC50 was 7.77. In the case of `N#Cc1cc(NCc2cccc(CN3C[C@H](O)[C@@H](O)[C@H](O)[C@H]3CO)c2)cc(-c2ncccn2)c1` [Compound 1047, 3-(pyrimidin-2-yl)-5-{[(3-{[(2R,3R,4R,5S)-3,4,5-trihydroxy-2-(hydroxymethyl)piperidin-1-yl]methyl}phenyl)methyl]amino}benzonitrile] it was 7.89; in that of `Cc1cc(NCc2ccc(CN3C[C@H](O)[C@@H](O)[C@H](O)[C@H]3CO)cc2)cc(N2CCOCC2)c1` [Compound 1048, (2R,3R,4R,5S)-2-(hydroxymethyl)-1-{[4-({[3-methyl-5-(morpholin-4-yl)phenyl]amino}methyl)phenyl]methyl}piperidine-3,4,5-triol], 6.84. As to `Cc1cc(NCc2ccc(CN3C[C@H](O)[C@@H](O)[C@H](O)[C@H]3CO)cc2)cc(C2=COCCO2)c1` [Compound 1050, (2R,3R,4R,5S)-1-{[4-({[3-(5,6-dihydro-1,4-dioxin-2-yl)-5-methylphenyl]amino}methyl)phenyl]methyl}-2-(hydroxymethyl)piperidine-3,4,5-triol], the pIC50 was 7.49. On to `Cc1cc(NCc2ccc(CN3C[C@H](O)[C@@H](O)[C@H](O)[C@H]3CO)cc2)cc(-c2ccc[nH]2)c1` [Compound 1051, (2R,3R,4R,5S)-2-(hydroxymethyl)-1-{[4-({[3-methyl-5-(1H-pyrrol-2-yl)phenyl]amino}methyl)phenyl]methyl}piperidine-3,4,5-triol], for which the pIC50 is 7.32. Take `Cc1cc(NCc2ccc(CN3C[C@H](O)[C@@H](O)[C@H](O)[C@H]3CO)cc2)cc(-c2ncccn2)c1` [Compound 1053, (2R,3R,4R,5S)-2-(hydroxymethyl)-1-{[4-({[3-methyl-5-(pyrimidin-2-yl)phenyl]amino}methyl)phenyl]methyl}piperidine-3,4,5-triol]: the pIC50 was 6.98. For the compound `CS(=O)(=O)c1cc(NCc2ccc(CN3C[C@H](O)[C@@H](O)[C@H](O)[C@H]3CO)cc2)cc(N2CCOCC2)c1` [Compound 1054, (2R,3R,4R,5S)-2-(hydroxymethyl)-1-{[4-({[3-methanesulfonyl-5-(morpholin-4-yl)phenyl]amino}methyl)phenyl]methyl}piperidine-3,4,5-triol], the pIC50 was 6.99.

As to `CS(=O)(=O)c1cc(NCc2ccc(CN3C[C@H](O)[C@@H](O)[C@H](O)[C@H]3CO)cc2)cc(-c2ncccn2)c1` [Compound 1059, (2R,3R,4R,5S)-2-(hydroxymethyl)-1-{[4-({[3-methanesulfonyl-5-(pyrimidin-2-yl)phenyl]amino}methyl)phenyl]methyl}piperidine-3,4,5-triol], the pIC50 was 7.48.

`N#Cc1cc(NCc2ccc(CN3C[C@H](O)[C@@H](O)[C@H](O)[C@H]3CO)cc2)cc(N2CCOCC2)c1` [Compound 1060, 3-(morpholin-4-yl)-5-{[(4-{[(2R,3R,4R,5S)-3,4,5-trihydroxy-2-(hydroxymethyl)piperidin-1-yl]methyl}phenyl)methyl]amino}-benzonitrile]: the pIC50 was 7.39. With `N#Cc1cc(NCc2ccc(CN3C[C@H](O)[C@@H](O)[C@H](O)[C@H]3CO)cc2)cc(C2=COCCO2)c1` [Compound 1062, 3-(5,6-dihydro-1,4-dioxin-2-yl)-5-{[(4-{[(2R,3R,4R,5S)-3,4,5-trihydroxy-2-(hydroxymethyl)piperidin-1-yl]methyl}phenyl)-methyl]amino}benzonitrile] the figure was 9.00. Regarding `N#Cc1cc(NCc2ccc(CN3C[C@H](O)[C@@H](O)[C@H](O)[C@H]3CO)cc2)cc(-c2ccc[nH]2)c1` [Compound 1063, 3-(1H-pyrrol-2-yl)-5-{[(4-{[(2R,3R,4R,5S)-3,4,5-trihydroxy-2-(hydroxymethyl)piperidin-1-yl]methyl}phenyl)methyl]amino}-benzonitrile], the pIC50 is 9.00.

In the case of `N#Cc1cc(NCc2ccc(CN3C[C@H](O)[C@@H](O)[C@H](O)[C@H]3CO)cc2)cc(-c2cccnn2)c1` [Compound 1064, 3-(pyridazin-3-yl)-5-{[(4-{[(2R,3R,4R,5S)-3,4,5-trihydroxy-2-(hydroxymethyl)piperidin-1-yl]methyl}phenyl)methyl]amino}-benzonitrile], the pIC50 is 7.92. For `N#Cc1cc(NCc2ccc(CN3C[C@H](O)[C@@H](O)[C@H](O)[C@H]3CO)cc2)cc(-c2ncccn2)c1` [Compound 1065, 3-(pyrimidin-2-yl)-5-{[(4-{[(2R,3R,4R,5S)-3,4,5-trihydroxy-2-(hydroxymethyl)piperidin-1-yl]methyl}phenyl)methyl]amino}-benzonitrile], the pIC50 is 8.05. Turning to `OC[C@@H]1[C@@H](O)[C@H](O)[C@@H](O)CN1Cc1cccc(CNc2ccc(C3=COCCO3)cc2)c1` [Compound 1066, (2R,3R,4R,5S)-1-{[3-({[4-(5,6-dihydro-1,4-dioxin-2-yl)phenyl]amino}methyl)phenyl]methyl}-2-(hydroxymethyl)piperidine-3,4,5-triol], the pIC50 is 7.16.

For the compound `COc1cc(Br)cc(NCCn2cc(CCN3C[C@H](O)[C@@H](O)[C@H](O)[C@H]3CO)c3ccccc32)c1` [Compound 1075, (2R,3R,4R,5S)-1-[2-(1-{2-[(3-bromo-5-methoxyphenyl)amino]ethyl}-1H-indol-3-yl)ethyl]-2-(hydroxymethyl)piperidine-3,4,5-triol], the pIC50 is 5.72. Turning to `OC[C@@H]1[C@@H](O)[C@H](O)[C@@H](O)CN1CCc1cn(CCNc2ccccc2)c2ccccc12` [Compound 1076, (2R,3R,4R,5S)-2-(hydroxymethyl)-1-(2-{1-[2-(phenylamino)ethyl]-1H-indol-3-yl}ethyl)piperidine-3,4,5-triol], the pIC50 was 5.88. In the case of `CC(C)c1cc(CCNc2ccc(N=[N+]=[N-])cc2[N+](=O)[O-])cc(CCN2C[C@H](O)[C@@H](O)[C@H](O)[C@H]2CO)c1` [Compound 1077, (2R,3R,4R,5S)-1-[2-(3-{2-[(4-azido-2-nitrophenyl)amino]ethyl}-5-(propan-2-yl)phenyl)ethyl]-2-(hydroxymethyl)piperidine-3,4,5-triol] it was 6.16.
